From patent US6603046B1, “Bis-aromatic a,β-unsaturated ketones” (Lica Pharmaceuticals A/S, priority 1992, dated 2003)
Converted amounts (≈) assume the structure as drawn.

Legend:
[1] = tested on: Sarcina lutea; experiment: MIC, macrodilution (Example 17); assay type: cell-based; conditions: Micrococcus luteus; 1 strain
[2] = tested on: P. falciparum; experiment: P. falciparum growth in vitro (Table 14.1, strain not stated); assay type: cell-based; conditions: Plasmodium falciparum, read-out: inhibition of malaria parasites (middle figure) (converted)
Outline: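 Parasitized erythrocytes (~1% parasitemia) in RPMI with graded compound concentrations, cultured 48 h. 3H-hypoxanthine added for the final 24 h. Growth measured as 3H-hypoxanthine incorporation into parasite DNA by liquid scintillation.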

[3] = Plasma concentration and half live in mice after i.p. injection, HPLC (Example 25); assay type: in vivo
Method: (§1) Serum or plasma was diluted with one part of acetonitrile, left for 15 min at 4° C., and centrifugated for 3 min at 10,000 g. An aliquot of the supernatant was chromatographed at 37° C. by HPLC over Spherisorb ODS-2 (5 μm, 120×4.5 mm, Phase Separation LTD, UK) using acetonitrile aqueous acetic acid, 2%, (1:1) as an eluent, flow rate 1.5 ml/min, and UV detection (370 nm and 254 nm).
Standards. Standards containing 14.68 μg/ml, 4.90 μg/ml, and 0.45 μg/ml plasma were freshly prepared every day. The standards were wrapped in tinfoil to avoid light catalyzed isomerization.
A solution of 2,4dimethylnitrobenzene (0.20 μl/ml) was used as an internal standard.
Licochalcone A (10 mg/kg mouse≈200 μg/mouse) was injected i.p. into mice. The mice were sacrificed and bleeded after 15, 30, 60, 120, 240 and 480 min. The plasma was obtained by centrifugation. 100 μl of plasma was added to 100 μl of the solution of the internal standard and the mixture left for 30 min. The mixture was centrifuged for 5 min at 10,000 g and 20 μl of the clear supernatant was analyzed by HPLC (Example 23).

[4] = tested on: human monocytes; experiment: Zymosan-enhanced chemiluminescence, monocytes; assay type: cell-based; conditions: Monocyte, read-out: percentage inhibition of chemiluminescence response to opsonized zymosan (mean ± SEM)
Method: Chemiluminescence. Monocytes were prepared from heparinized blood by metrizoate sodium-Ficoll (the same as lymphocyte proliferation). Polymorphonuclear leucocytes (PMN) were prepared from heparinized blood by dextran sedimentation and metrizoate sodium-Ficoll separation. Remaining erythrocytes were removed by hypotonic lysis. A zymosan-enhanced chemiluminescence assay was used. The assay was performed in a total volume of 5.5 ml at ambient temperature in glass scintillation vials. A Beckman L 8000 scintillation counter (placed under air-conditioned, thermostat controlled, 21±1° C. conditions) was used in the out-of-coincidence mode A 1.1 ml portion of PMN or monocyte suspension (1×10^6 cells per ml) was pre-incubated with 1.1 ml of various concentrations of licochalcone A for 30 min at 37° C. in a rotor at 20 rpm Luminol (5-amino-2,3-dihydro-1,4-phatalazinedione) obtained from Sigma Chemical Co., St Louis, Mo., U.S.A., was maintained as a stock solution of 10 mg/ml in NaOH (0.1 N) and diluted in Krebs-Ringer solution immediately before use. Each vial contained 5×10^5 pre-incubated PMN or monocyte, 4 mg of opsonized zymosan (Sigma), 50 μl of luminol solution, and 4.45 ml of Krebs-Ringer solution containing 5 mM glucose. The final concentration of luminol in the assay mixture was 5×10^−8m.

[5] = Serum concentration in rabbits after intravenous administration (Example 20); assay type: in vivo; conditions: rabbit
Method: Number of rabbits: 1 rabbit for each group
Dose: 20 mg per kg body weight
Route: Intravenously, administered once
Samples: Samples were drawn from each rabbit twice.
as §1

[6] = tested on: Helicobacter pylori; experiment: MIC on Helicobacter pylori, microaerophilic (Example 18); assay type: cell-based
Method: Bacteria. 16 recent clinical isolates of Helicobacter pylori from patients with duodenal ulcer or chronic gastritis. […] Staphylococcus aureus ATCC 25923 was used as control strain. The Helicobacter pylori strains were subcultured on chocolate agar plates with cysteine in a microaerophilic atmosphere at 37° C. for 72 hours and kept frozen at −80° C. until assayed. MIC determinations. Macrodilution rows were made with Helicomedia with 2 ml in all vials. […] All dilution rows were inoculated to give a final concentration of 10^5 CFU/ml. The MIC rows were incubated under microaerophilic conditions for […]. […] The control strain Staphylococcus aureus was incubated both aerobically and microaerophilically at 37° C. for 24 hours. All plates were read by the Karber method.

[7] = tested on: Gram positive cocci; experiment: MIC, macrodilution (Example 17), text summary; assay type: cell-based
[8] = tested on: L. major WHO pentostam resistant strain promastigotes; experiment: Pentostam resistant L. major promastigotes, 3H-thymidine uptake (Example 10); conditions: 5 μg/ml
[9] = tested on: chloroquine resistant P. falciparum DD2 strain; experiment: In vitro growth of P. falciparum DD2, 3H-hypoxanthine uptake (Example 15); assay type: cell-based, Plasmodium falciparum; conditions: for Growth in % of control (mean ± SEM): title: percentage inhibition of 3H-hypoxanthine uptake
[10] = tested on: M. intracellular; experiment: Radiometric MIC (Example 19); assay type: cell-based; conditions: n=9
[11] = Helicobacter pylori, 16 clinical isolates

Compound `C=CC(C)(C)c1cc(/C=C/C(=O)c2ccc(O)cc2)c(OC)cc1O` [Licochalcone A, licochalcone A] has an MIC [1] of 4 mg/L (≈ 11.8 µM), an inhibition at 0.5 µg/mL ([2]; 0.5 μg/ml) of 39% and an inhibition at 1 µg/mL ([2]; 1 μg/ml) of 69%. For the same compound, the inhibition at 5 µg/mL ([2]; 5 μg/ml) was 98%, the inhibition at 10 µg/mL ([2]; 10 μg/ml) was 98% and the plasma concentration ([3]; 10 mg/kg i.p., after 120 min) was “below det. limit”. For the same compound, the plasma concentration ([3]; 10 mg/kg i.p., after 240 min) was “below det. limit”, the plasma concentration ([3]; 10 mg/kg i.p., after 480 min) was “below det. limit” and the “metabolites in mouse plasma” value ([3]; HPLC) was “Three metabolites have been detected”. The concentration at 15 min ([3]; mouse, plasma, intraperitoneal, 10 mg/kg i.p., after 15 min) was 1.33 µg/mL, the concentration at 30 min ([3]; mouse, plasma, intraperitoneal, 10 mg/kg i.p., after 30 min) was 0.28 µg/mL and the concentration at 60 min ([3]; mouse, plasma, intraperitoneal, 10 mg/kg i.p., after 60 min) was 0.14 µg/mL. For the same compound, the inhibition at 1 µg/mL ([4]; 1 μg/ml) was 8.2 ± 3.3%, the inhibition at 2 µg/mL ([4]; 2 μg/ml) was 7.8 ± 6.5% and the inhibition at 5 µg/mL ([4]; 5 μg/ml) was 24.8 ± 5.3%. The inhibition at 10 µg/mL ([4]; 10 μg/ml) was 37.9 ± 3.1%, the inhibition at 20 µg/mL ([4]; 20 μg/ml) was 56.5 ± 3.8% and the concentration at 24 h ([5]; 24 hours after intravenous 20 mg per kg, detection limit) was under 0.05 µg/mL. The concentration at 1 h ([5]; one hour following intravenous 20 mg per kg) was 0.35 µg/mL, the “MIC Range” value ([6]; 16 clinical isolates) was 16 to 125 mg/L and the MIC50 [6, 11] was 62 mg/L (≈ 183 µM). The MIC90 [6, 11] was 125 mg/L (≈ 369 µM), the MIC ([6]; Helicobacter pylori, read-out: MIC of the only strain with a low MIC) was 16 mg/L and the MIC [7] was 4000 to 8000 mg/L (≈ 11800 to 23600 µM). For the same compound, the “growth of pentostam resistant parasites” value [8] was “completely inhibited the growth”, the IC50 ([9]; Plasmodium falciparum, DD2, read-out: concentration in which parasite growth was retarded by 50%) was 0.5 to 1 mg/L (≈ 1.48 to 2.96 µM) and the “Growth in % of control (mean ± SEM)” value ([9]; 0.1 μg/ml) was 5.0 ± 2.0%. The “Growth in % of control (mean ± SEM)” value ([9]; 0.5 μg/ml) was 41.0 ± 4.0%, the “Growth in % of control (mean ± SEM)” value ([9]; 1 μg/ml) was 66.0 ± 3.0% and the “Growth in % of control (mean ± SEM)” value ([9]; 5 μg/ml) was 98.0 ± 1.0%. For the same compound, the “Growth in % of control (mean ± SEM)” value ([9]; 10 μg/ml) was 99.0 ± 0.0001%, the meanMIC [10] was 50.0 µg/mL and the rangeMIC [10] was 20 to 80 µg/mL.
